Assay results from publication PMC8371902, “Phase 1 study of M2698, a p70S6K/AKT dual inhibitor, in patients with advanced cancer” (Journal of Hematology & Oncology, 2021).
Like-named read-outs stand apart in the source and are kept apart here.

Tested on: patients with advanced metastatic cancer
Source text: In this phase 1 study, dose escalation was followed by expansion cohorts of once-daily, oral M2698 in continuous 21-day cycles. Primary objectives were to determine the maximum tolerated dose (MTD), dose-limiting toxicities (DLTs), and recommended phase 2 dose (RP2D). Secondary objectives were to assess safety and tolerability, pharmacokinetics (PK, including food effect) and antitumor activity. Pharmacodynamic biomarker assessments were exploratory. Treatment was discontinued if there was disease progression, toxicity or consent withdrawal.
In Part 1, M2698 monotherapy was investigated in a dose escalation with a food effect cohort. In Part 2, M2698 was investigated as monotherapy (expansion cohort) to further characterize safety, tolerability and pharmacokinetics, and assess antitumor activity in PAM + patients without confounding markers (exploratory).
Dose escalation analysis included all patients who experienced a DLT and those who received ≥ 80% of planned M2698 doses in cycle 1 without experiencing a DLT. Safety analysis included all patients who received ≥ 1 dose of M2698. PK analysis included all patients who received ≥ 1 dose of M2698 and had measurable plasma concentrations. Dose proportionality was tested using the power model (linear regression approach on the log -transformed scale).

## NC(=O)c1cccc2c(N[C@H](CN3CCC3)c3ccc(Cl)c(C(F)(F)F)c3)ncnc12 [M2698]
75 mg n=4
  M2698-related TEAE: Ataxia: 0
  M2698-related TEAE: Blood and lymphatic system disorders: 0
  M2698-related TEAE: Blood creatine phosphokinase increased: 1
  M2698-related TEAE: Blood creatinine increased: 0
  M2698-related TEAE: Cardiac disorders: 0
  M2698-related TEAE: Cognitive disorder: 0
  M2698-related TEAE: Constipation: 0
  M2698-related TEAE: Decreased appetite: 0
  M2698-related TEAE: Delusion: 0
  M2698-related TEAE: Depression: 0
  M2698-related TEAE: Diarrhoea: 0
  M2698-related TEAE: Diarrhoea haemorrhagic: 0
  M2698-related TEAE: Dizziness: 0
  M2698-related TEAE: Dry eye: 0
  M2698-related TEAE: Dry mouth: 0
  M2698-related TEAE: Dysgeusia: 1
  M2698-related TEAE: Dyspepsia: 0
  M2698-related TEAE: Dysphagia: 0
  M2698-related TEAE: Energy increased: 0
  M2698-related TEAE: Erythema: 0
  M2698-related TEAE: Euphoric mood: 0
  M2698-related TEAE: Eye disorders: 0
  M2698-related TEAE: Fatigue: 0
  M2698-related TEAE: Gamma-glutamyltransferase increased: 0
  M2698-related TEAE: Gastrointestinal disorders: 0
  M2698-related TEAE: Gastrooesophageal reflux disease: 0
  M2698-related TEAE: General disorders and administration site conditions: 0
  M2698-related TEAE: Headache: 0
  M2698-related TEAE: Hyperhidrosis: 0
  M2698-related TEAE: Hypokalaemia: 0
  M2698-related TEAE: Hypomagnesaemia: 0
  M2698-related TEAE: Insomnia: 0
  M2698-related TEAE: Investigations: 1
  M2698-related TEAE: Lipase increased: 0
  M2698-related TEAE: Lymphopenia: 0
  M2698-related TEAE: Metabolism and nutrition disorders: 0
  M2698-related TEAE: Mucosal inflammation: 0
  M2698-related TEAE: Nausea: 0
  M2698-related TEAE: Nervous system disorders: 1
  M2698-related TEAE: Nightmare: 1
  M2698-related TEAE: Onychomadesis: 0
  M2698-related TEAE: Paranoia: 0
  M2698-related TEAE: Photosensitivity reaction: 0
  M2698-related TEAE: Posterior reversible encephalopathy syndrome: 0
  M2698-related TEAE: Pruritus generalised: 0
  M2698-related TEAE: Psychiatric disorders: 1
  M2698-related TEAE: Rash: 0
  M2698-related TEAE: Rash maculo-papular: 1
  M2698-related TEAE: Skin and subcutaneous tissue disorders: 1
  M2698-related TEAE: Subjects with at least one event: 2
  M2698-related TEAE: Transaminases increased: 0
  M2698-related TEAE: Tremor: 0
  M2698-related TEAE: Vision blurred: 0
  M2698-related TEAE: Vomiting: 0
  M2698-related TEAE: White blood cell count decreased: 0
110 mg n=4
  M2698-related TEAE: Abnormal dreams: 0
  M2698-related TEAE: Affect lability: 0
  M2698-related TEAE: Alanine aminotransferase increased: 0
  M2698-related TEAE: Amylase increased: 0
  M2698-related TEAE: Anaemia: 0
  M2698-related TEAE: Angina pectoris: 0
  M2698-related TEAE: Anxiety: 0
  M2698-related TEAE: Aphasia: 0
  M2698-related TEAE: Ataxia: 0
  M2698-related TEAE: Blood and lymphatic system disorders: 0
  M2698-related TEAE: Blood creatine phosphokinase increased: 0
  M2698-related TEAE: Blood creatinine increased: 0
  M2698-related TEAE: Cardiac disorders: 0
  M2698-related TEAE: Cognitive disorder: 0
  M2698-related TEAE: Constipation: 1
  M2698-related TEAE: Decreased appetite: 0
  M2698-related TEAE: Delusion: 0
  M2698-related TEAE: Depression: 0
  M2698-related TEAE: Diarrhoea: 0
  M2698-related TEAE: Diarrhoea haemorrhagic: 0
  M2698-related TEAE: Dizziness: 0
  M2698-related TEAE: Dry eye: 0
  M2698-related TEAE: Dry mouth: 0
  M2698-related TEAE: Dysgeusia: 0
  M2698-related TEAE: Dyspepsia: 0
  M2698-related TEAE: Dysphagia: 0
  M2698-related TEAE: Energy increased: 0
  M2698-related TEAE: Erythema: 0
  M2698-related TEAE: Euphoric mood: 0
  M2698-related TEAE: Eye disorders: 0
  M2698-related TEAE: Fatigue: 0
  M2698-related TEAE: Gamma-glutamyltransferase increased: 0
  M2698-related TEAE: Gastrointestinal disorders: 1
  M2698-related TEAE: Gastrooesophageal reflux disease: 0
  M2698-related TEAE: General disorders and administration site conditions: 0
  M2698-related TEAE: Headache: 0
  M2698-related TEAE: Hyperhidrosis: 0
  M2698-related TEAE: Hypokalaemia: 0
  M2698-related TEAE: Hypomagnesaemia: 0
  M2698-related TEAE: Insomnia: 0
  M2698-related TEAE: Investigations: 0
  M2698-related TEAE: Lipase increased: 0
  M2698-related TEAE: Lymphopenia: 0
  M2698-related TEAE: Metabolism and nutrition disorders: 0
  M2698-related TEAE: Mucosal inflammation: 0
  M2698-related TEAE: Nausea: 1
  M2698-related TEAE: Nervous system disorders: 0
  M2698-related TEAE: Nightmare: 0
  M2698-related TEAE: Onychomadesis: 0
  M2698-related TEAE: Paranoia: 0
  M2698-related TEAE: Photosensitivity reaction: 0
  M2698-related TEAE: Posterior reversible encephalopathy syndrome: 0
  M2698-related TEAE: Pruritus generalised: 0
  M2698-related TEAE: Psychiatric disorders: 0
  M2698-related TEAE: Rash: 0
  M2698-related TEAE: Rash maculo-papular: 0
  M2698-related TEAE: Skin and subcutaneous tissue disorders: 0
  M2698-related TEAE: Subjects with at least one event: 1
  M2698-related TEAE: Transaminases increased: 0
  M2698-related TEAE: Tremor: 0
  M2698-related TEAE: Vision blurred: 0
  M2698-related TEAE: Vomiting: 0
  M2698-related TEAE: White blood cell count decreased: 0
160 mg n=6
  M2698-related TEAE: Abnormal dreams: 1
  M2698-related TEAE: Affect lability: 0
  M2698-related TEAE: Alanine aminotransferase increased: 0
  M2698-related TEAE: Amylase increased: 0
  M2698-related TEAE: Anaemia: 0
  M2698-related TEAE: Angina pectoris: 0
  M2698-related TEAE: Anxiety: 0
  M2698-related TEAE: Aphasia: 0
  M2698-related TEAE: Ataxia: 0
  M2698-related TEAE: Blood and lymphatic system disorders: 1
  M2698-related TEAE: Blood creatine phosphokinase increased: 0
  M2698-related TEAE: Blood creatinine increased: 0
  M2698-related TEAE: Cardiac disorders: 0
  M2698-related TEAE: Cognitive disorder: 0
  M2698-related TEAE: Constipation: 0
  M2698-related TEAE: Decreased appetite: 0
  M2698-related TEAE: Delusion: 0
  M2698-related TEAE: Depression: 0
  M2698-related TEAE: Diarrhoea: 0
  M2698-related TEAE: Diarrhoea haemorrhagic: 0
  M2698-related TEAE: Dizziness: 0
  M2698-related TEAE: Dry eye: 1
  M2698-related TEAE: Dry mouth: 1
  M2698-related TEAE: Dysgeusia: 1
  M2698-related TEAE: Dyspepsia: 0
  M2698-related TEAE: Dysphagia: 1
  M2698-related TEAE: Energy increased: 1
  M2698-related TEAE: Erythema: 1
  M2698-related TEAE: Euphoric mood: 1
  M2698-related TEAE: Eye disorders: 1
  M2698-related TEAE: Fatigue: 0
  M2698-related TEAE: Gamma-glutamyltransferase increased: 1
  M2698-related TEAE: Gastrointestinal disorders: 1
  M2698-related TEAE: Gastrooesophageal reflux disease: 0
  M2698-related TEAE: General disorders and administration site conditions: 1
  M2698-related TEAE: Headache: 0
  M2698-related TEAE: Hyperhidrosis: 0
  M2698-related TEAE: Hypokalaemia: 0
  M2698-related TEAE: Hypomagnesaemia: 0
  M2698-related TEAE: Insomnia: 1
  M2698-related TEAE: Investigations: 3
  M2698-related TEAE: Lipase increased: 0
  M2698-related TEAE: Lymphopenia: 1
  M2698-related TEAE: Metabolism and nutrition disorders: 0
  M2698-related TEAE: Mucosal inflammation: 0
  M2698-related TEAE: Nausea: 0
  M2698-related TEAE: Nervous system disorders: 1
  M2698-related TEAE: Nightmare: 0
  M2698-related TEAE: Onychomadesis: 0
  M2698-related TEAE: Paranoia: 0
  M2698-related TEAE: Photosensitivity reaction: 0
  M2698-related TEAE: Posterior reversible encephalopathy syndrome: 0
  M2698-related TEAE: Pruritus generalised: 0
  M2698-related TEAE: Psychiatric disorders: 2
  M2698-related TEAE: Rash: 1
  M2698-related TEAE: Rash maculo-papular: 0
  M2698-related TEAE: Skin and subcutaneous tissue disorders: 2
  M2698-related TEAE: Subjects with at least one event: 4
  M2698-related TEAE: Transaminases increased: 1
  M2698-related TEAE: Tremor: 0
  M2698-related TEAE: Vision blurred: 0
  M2698-related TEAE: Vomiting: 0
  M2698-related TEAE: White blood cell count decreased: 1
160 mg, n = 1
  DLT observed: grade 3 increase in gamma-glutamyltransferase
200 mg n=3
  M2698-related TEAE: Abnormal dreams: 0
  M2698-related TEAE: Affect lability: 0
  M2698-related TEAE: Alanine aminotransferase increased: 0
  M2698-related TEAE: Amylase increased: 0
  M2698-related TEAE: Anaemia: 1
  M2698-related TEAE: Angina pectoris: 0
  M2698-related TEAE: Anxiety: 0
  M2698-related TEAE: Aphasia: 0
  M2698-related TEAE: Ataxia: 0
  M2698-related TEAE: Blood and lymphatic system disorders: 1
  M2698-related TEAE: Blood creatine phosphokinase increased: 0
  M2698-related TEAE: Blood creatinine increased: 0
  M2698-related TEAE: Cardiac disorders: 0
  M2698-related TEAE: Cognitive disorder: 0
  M2698-related TEAE: Constipation: 0
  M2698-related TEAE: Decreased appetite: 1
